Reference: patent publication US20060198882A1, “Stable liposomes or micelles comprising a sphinolipid and a peg-lipopolymer” (priority 2003, published 2006)

Tests used:
[1] = tested on: C-26 colon carcinoma cells; test: Cell uptake and metabolism of radiolabelled ceramide assemblies; type: cell-based, human
Description: C-26 colon carcinoma cells were seeded into six-well plates at density of 2.5×10^5 in 2 ml of complete RPMI-1640 medium supplemented with 10% FCS, antibiotics, and glutamine. The cells were allowed to grow for 48 hr and replaced with 1 ml of complete serum containing medium. […] The radioactive doses of ceramides and lipid (dpm/μmole) are described in Table 2C. After these predefined time periods cells were tripsinized and washed twice with PBS. Cell lipids, lipids of the medium and lipids of the wash fraction were extracted by the Bligh and Dyer procedure [E. G. Bligh and W. J. Dyer, Can. J. Biochem. Physiol. 37:[…] (1959)]. Briefly, chloroform, methanol, and DDW were added to the cells at a final ratio of 1:2:1 (by vol.), and incubated for 10 min at 45° C. Then the mixtures were centrifuged at […] for 5 min. The supernatants containing the lipids were taken and chloroform and DDW were added in order to reach the final volume ratio of chloroform: methanol:DDW of 1:1:1. Two phases were formed and well separated after centrifugation. The water/methanol rich upper phase was removed while the chloroform-rich lower phase which contains >99% of the lipids was washed once with synthetic upper phase composed of chloroform:methanol:DDW (6:94:96, by volume). The lipid-containing lower phase was dried under nitrogen stream and redissolved in chloroform: methanol (2:1, by vol.) ready for analysis.
The lipid mixture was applied to silica gel TLC plates and developed in the solvent system of chloroform:methanol: DDW (84:16:1,5, by vol.) and detected by Copper sulfate reagent. The TLC plates were photographed by the Fluor-S-Multyimiger (Bio-Rad, Hercules, Calif.). Migration of lipids from cells extracts, medium, and wash fractions was visualized in comparison to a different well established commercial markers. The retention factor RF (defined as the distance traveled by the compound divided by the distance traveled by the solvent) of various molecules are as follows: SPM-0.04, EPC or HSPC-0.1, DOTAP: 0.24, GalCer: 0.29-0.38, GluCer: 0.4, C6 Cer: 0.68, and C16 Cer: […].
The TLC plates were then subjected overnight to imaging plate and the radioactivity was measured by Bio-Imaging analyzer (FUJI BAS 1000, Japan) then the radioactive bands were scraped from the TLC plate, placed into the test tube containing scintillation medium Opti-Fluor (Packard Bioscience, Groningen, Netherlands) and the radioactivity was counted by a β-counter.
The uptake and metabolism of radiolabelled liposomal or free C6Cer were studied in C-26 colon carcinoma cells. Cells were incubated with either free ^14C6Cer (in ethanol) or with liposomal C6Cer. Total lipids were extracted and the level of uptake and metabolites were determined from cells and growth medium as described in Materials and Methods.

[2] = Conversion of C6Cer in cell derived or fresh medium; type: in vitro ADME

Q: Which results are given for `CCCCCCCCCCCCC/C=C/[C@@H](O)[C@H](CO)NC(=O)CCCCC` [C6Cer, N-hexanoyl-D-erythro-sphingosine]?
A: Cell uptake (%) of ^14C6Cer ([1]; 2 hr): 39.9%; Cell uptake (nmole) of ^14C6Cer ([1]; 2 hr, 20 μM ceramide): 13.7 nmol; Cell uptake (%) of ^14C6Cer ([1]; 24 hr): 93.7%; Cell uptake (nmole) of ^14C6Cer ([1]; 24 hr): 34.5 nmol; Cell uptake (%) of ^14C6Cer ([1]; 72 hr): 72%; Cell uptake (nmole) of ^14C6Cer ([1]; 72 hr): 24.5 nmol; ceramide converted into C6 SPM ([2]; cell derived medium (taken from C26 cells)): 9%; metabolic activity ([2]; fresh medium): no metabolitic activity
